From PMC11637875, “Discovery of novel PARP1/NRP1 dual-targeting inhibitors with strong antitumor potency” (Frontiers in Pharmacology, 2024)

Columns and labels:
AKT2 = AKT2 (Homo sapiens, UniProt P31751); test: Selectivity profile (123 kinase panel); assay type: biochemical
MDA-MB-231 cells = test: In vitro antiproliferation assay (MTT); assay type: cell-based; details: Homo sapiens, MDA-MB-231
Method: Cell viability was measured by MTT assays. […] Afterward, the medium was removed. MTT (5 mg/mL) was dissolved in phosphate-buffered saline (PBS) and filter-sterilized, and then, 20 μL of the prepared MTT solution was added to each well, and the cells were incubated for another 4 h until a purple precipitate was visible. The supernatant was removed by centrifugation, and DMSO (150 μL/well) was added to dissolve the insoluble crystals. The absorbance was determined using an enzyme-linked immunosorbent assay reader at a test wavelength of 570 nm. The assays were performed three times in a parallel manner. The non-linear regression was used to plot a Dose-Response-Inhibition to determine the value of the IC50. […] The data were analyzed using GraphPad Prism 9 software.

NEK9 = NEK9 (Homo sapiens, UniProt Q8TD19); test: Selectivity profile (123 kinase panel); assay type: biochemical
PARP1 = target: T1, PARP1 (Homo sapiens, UniProt P09874); test: In vitro PARP1 inhibition assay (chemiluminescence); assay type: biochemical; details: PARP1 enzyme 0.6 units/well
T1 construct: purchased Abcam
Method: In each well, 50 μL of 1 × PARP1 buffer was added and incubated for 30 min at room temperature. The 1 × PARP1 buffer was removed from the wells, and then 25 μL of 1 × PARP1 cocktail was added to each well along with varying doses of compounds and PARP1 enzyme (0.6 units/well). Incubated and washed twice with PBS and 0.1% Triton X-100. Then added 50 μL Strep-HRP and washed twice. Equal volumes (100 μL) of PeroxyGlow A and B were added to each well and immediately take chemiluminescent readings. Data were analyzed by GraphPad Prism 9 software based on chemiluminescence readings of chemiluminescent substrates of Strep-HRP in each well. The IC50 value was were calculated by nonlinear curve fitting in GraphPad Prism 9.

FGFR4 = FGFR4 (Homo sapiens, UniProt P22455); test: Selectivity profile (123 kinase panel); assay type: biochemical
CK1α = CK1α (Homo sapiens, UniProt P48729); test: Selectivity profile (123 kinase panel); assay type: biochemical
Erk5 = Erk5 (Homo sapiens, UniProt Q13164); test: Selectivity profile (123 kinase panel); assay type: biochemical
CSK = CSK (Homo sapiens, UniProt P41240); test: Selectivity profile (123 kinase panel); assay type: biochemical
EPHB4 = EPHB4 (Homo sapiens, UniProt P54760); test: Selectivity profile (123 kinase panel); assay type: biochemical
BRAF = BRAF (Homo sapiens, UniProt P15056); test: Selectivity profile (123 kinase panel); assay type: biochemical
PARP8 = PARP8 (Homo sapiens, UniProt Q8N3A8); test: Specificity testing by MST assay; assay type: binding
Method: (§1) All samples were diluted in 1 × PBST. […] Affinity Analysis software.

PARP9 = PARP9 (Homo sapiens, UniProt Q8IXQ6); test: Specificity testing by MST assay; assay type: binding
Method: as §1

PARP12 = PARP12 (Homo sapiens, UniProt Q9H0J9); test: Specificity testing by MST assay; assay type: binding
Method: as §1

PARP10 = PARP10 (Homo sapiens, UniProt Q53GL7); test: Specificity testing by MST assay; assay type: binding
Method: as §1

PARP3 = PARP3 (Homo sapiens, UniProt Q9Y6F1); test: Specificity testing by MST assay; assay type: binding
Method: as §1

PARP13 = PARP13 (Homo sapiens, UniProt Q7Z2W4); test: Specificity testing by MST assay; assay type: binding
Method: as §1

NRP2 = NRP2 (Homo sapiens, UniProt O60462); test: Specificity testing by MST assay; assay type: binding
Method: as §1

PARP2 = PARP2 (Homo sapiens, UniProt Q9UGN5); test: Specificity testing by MST assay; assay type: binding
Method: as §1

PARP14 = PARP14 (Homo sapiens, UniProt Q460N5); test: Specificity testing by MST assay; assay type: binding
Method: as §1

CHEK2 = CHEK2 (Homo sapiens, UniProt O96017); test: Specificity testing by MST assay; assay type: binding
Method: as §1

PARP7 = PARP7 (Homo sapiens, UniProt Q7Z3E1); test: Specificity testing by MST assay; assay type: binding
Method: as §1

PARP15 = PARP15 (Homo sapiens, UniProt Q460N3); test: Specificity testing by MST assay; assay type: binding
Method: as §1

ATR = ATR (Homo sapiens, UniProt Q13535); test: Specificity testing by MST assay; assay type: binding
Method: as §1

RAD51 = RAD51 (Homo sapiens, UniProt Q06609); test: Specificity testing by MST assay; assay type: binding
Method: as §1

NRP1 = target: T2, NRP1 (Homo sapiens, UniProt O14786); test: In vitro NRP1 inhibition assay (125I-VEGF-A binding displacement, NRP1-transfected HUVEC cells); details: 125I-VEGF-A165 binding competition, 2 h, 4°C
T2 construct: expressed in transfected cells; host or cells: HUVEC, adenovirus NRP1
Method: The method was performed as described previously ([Jarvis et al., 2010]). Radiolabeled binding displacement experiments were performed as described previously ([Jia et al., 2006]). Confluent adenovirus NRP1-transfected HUVEC cells in 96-well plates were washed twice with PBS. At 4°C various concentrations of compounds diluted in binding medium (Dulbecco’s modified Eagle’s medium, 25 mM HEPES, pH 7.3, containing 0.1% BSA) were added, followed by addition of the indicated concentration of ^125I-VEGF-A (1,200–1800 Ci/mmol, GE Healthcare, United Kingdom). After 2 h of incubation at 4°C, the medium was aspirated, and washed four times with cold phosphate-buffered saline. The cells were lysed with 0.25 M NaOH, 0.5% SDS solution, and the bound radioactivity of the lysates was measured. IC50 values were calculated from the competition curves of the compounds in the ^125I-VEGF-A165 binding assay using GraphPad Prism 9 software. Using log(inhibitors) vs response-Variable slope equation in the GraphPad Prism 9 to fit the curves. The equation was as follows: (Top and Bottom are the responses, respectively, at the top and bottom of the curve, Y is the inhibitory response at a given compound concentration X, and the Hillslope describes the steepness of the curve.) Y=Bottom+Top−Bottom/1+10^logIC50−xHillslope

EGFR = EGFR (Homo sapiens, UniProt P00533); test: Selectivity profile (123 kinase panel); assay type: biochemical

Sequence of PARP13 (Q7Z2W4 whole entry): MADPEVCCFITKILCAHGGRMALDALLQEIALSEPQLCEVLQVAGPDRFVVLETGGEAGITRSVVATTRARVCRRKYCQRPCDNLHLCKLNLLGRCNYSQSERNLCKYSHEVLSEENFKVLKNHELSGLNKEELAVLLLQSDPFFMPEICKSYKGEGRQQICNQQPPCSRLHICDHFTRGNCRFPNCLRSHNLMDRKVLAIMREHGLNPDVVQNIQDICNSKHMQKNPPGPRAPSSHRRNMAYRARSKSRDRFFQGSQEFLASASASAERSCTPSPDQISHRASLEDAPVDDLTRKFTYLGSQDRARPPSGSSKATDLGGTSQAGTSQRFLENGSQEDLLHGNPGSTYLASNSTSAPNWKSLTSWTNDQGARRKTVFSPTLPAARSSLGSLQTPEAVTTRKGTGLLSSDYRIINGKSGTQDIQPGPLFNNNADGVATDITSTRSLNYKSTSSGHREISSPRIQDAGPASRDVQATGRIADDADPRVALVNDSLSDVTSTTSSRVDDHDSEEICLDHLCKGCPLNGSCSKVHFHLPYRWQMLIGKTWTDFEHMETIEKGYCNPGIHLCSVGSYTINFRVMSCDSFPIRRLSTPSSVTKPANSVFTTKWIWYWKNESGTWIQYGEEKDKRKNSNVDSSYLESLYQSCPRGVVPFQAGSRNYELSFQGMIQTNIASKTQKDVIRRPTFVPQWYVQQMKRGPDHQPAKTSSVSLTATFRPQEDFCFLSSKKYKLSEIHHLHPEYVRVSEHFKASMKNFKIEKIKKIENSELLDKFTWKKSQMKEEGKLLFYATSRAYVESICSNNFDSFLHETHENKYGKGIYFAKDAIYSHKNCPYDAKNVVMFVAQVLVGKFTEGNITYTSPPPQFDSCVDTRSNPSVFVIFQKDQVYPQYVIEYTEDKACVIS
Sequence of EPHB4 (P54760 16-987, species assumed): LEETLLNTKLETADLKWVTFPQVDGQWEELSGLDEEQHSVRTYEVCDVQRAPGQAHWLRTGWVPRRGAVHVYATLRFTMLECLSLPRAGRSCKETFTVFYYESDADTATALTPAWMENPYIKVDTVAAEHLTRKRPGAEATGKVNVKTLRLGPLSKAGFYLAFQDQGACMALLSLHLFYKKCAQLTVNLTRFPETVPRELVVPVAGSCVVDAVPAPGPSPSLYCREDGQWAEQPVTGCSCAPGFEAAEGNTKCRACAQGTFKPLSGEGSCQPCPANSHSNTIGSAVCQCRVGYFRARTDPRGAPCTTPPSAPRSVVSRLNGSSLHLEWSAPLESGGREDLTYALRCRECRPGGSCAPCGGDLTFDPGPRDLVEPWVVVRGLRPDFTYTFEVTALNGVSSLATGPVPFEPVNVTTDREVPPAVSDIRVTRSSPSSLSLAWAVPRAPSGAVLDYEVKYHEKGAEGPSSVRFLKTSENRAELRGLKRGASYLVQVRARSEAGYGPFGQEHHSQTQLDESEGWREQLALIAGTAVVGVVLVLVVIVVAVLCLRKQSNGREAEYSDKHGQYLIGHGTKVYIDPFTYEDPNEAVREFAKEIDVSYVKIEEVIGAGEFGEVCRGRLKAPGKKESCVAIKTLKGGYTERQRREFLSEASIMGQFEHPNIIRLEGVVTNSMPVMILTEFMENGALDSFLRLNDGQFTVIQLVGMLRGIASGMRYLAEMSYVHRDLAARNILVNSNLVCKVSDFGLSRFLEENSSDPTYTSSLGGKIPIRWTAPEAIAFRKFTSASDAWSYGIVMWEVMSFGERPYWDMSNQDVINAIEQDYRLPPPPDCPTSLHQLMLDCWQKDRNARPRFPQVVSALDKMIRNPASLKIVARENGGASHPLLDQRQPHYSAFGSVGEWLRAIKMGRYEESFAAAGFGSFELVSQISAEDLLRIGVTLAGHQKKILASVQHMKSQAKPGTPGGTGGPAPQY
Sequence of PARP14 (Q460N5 whole entry): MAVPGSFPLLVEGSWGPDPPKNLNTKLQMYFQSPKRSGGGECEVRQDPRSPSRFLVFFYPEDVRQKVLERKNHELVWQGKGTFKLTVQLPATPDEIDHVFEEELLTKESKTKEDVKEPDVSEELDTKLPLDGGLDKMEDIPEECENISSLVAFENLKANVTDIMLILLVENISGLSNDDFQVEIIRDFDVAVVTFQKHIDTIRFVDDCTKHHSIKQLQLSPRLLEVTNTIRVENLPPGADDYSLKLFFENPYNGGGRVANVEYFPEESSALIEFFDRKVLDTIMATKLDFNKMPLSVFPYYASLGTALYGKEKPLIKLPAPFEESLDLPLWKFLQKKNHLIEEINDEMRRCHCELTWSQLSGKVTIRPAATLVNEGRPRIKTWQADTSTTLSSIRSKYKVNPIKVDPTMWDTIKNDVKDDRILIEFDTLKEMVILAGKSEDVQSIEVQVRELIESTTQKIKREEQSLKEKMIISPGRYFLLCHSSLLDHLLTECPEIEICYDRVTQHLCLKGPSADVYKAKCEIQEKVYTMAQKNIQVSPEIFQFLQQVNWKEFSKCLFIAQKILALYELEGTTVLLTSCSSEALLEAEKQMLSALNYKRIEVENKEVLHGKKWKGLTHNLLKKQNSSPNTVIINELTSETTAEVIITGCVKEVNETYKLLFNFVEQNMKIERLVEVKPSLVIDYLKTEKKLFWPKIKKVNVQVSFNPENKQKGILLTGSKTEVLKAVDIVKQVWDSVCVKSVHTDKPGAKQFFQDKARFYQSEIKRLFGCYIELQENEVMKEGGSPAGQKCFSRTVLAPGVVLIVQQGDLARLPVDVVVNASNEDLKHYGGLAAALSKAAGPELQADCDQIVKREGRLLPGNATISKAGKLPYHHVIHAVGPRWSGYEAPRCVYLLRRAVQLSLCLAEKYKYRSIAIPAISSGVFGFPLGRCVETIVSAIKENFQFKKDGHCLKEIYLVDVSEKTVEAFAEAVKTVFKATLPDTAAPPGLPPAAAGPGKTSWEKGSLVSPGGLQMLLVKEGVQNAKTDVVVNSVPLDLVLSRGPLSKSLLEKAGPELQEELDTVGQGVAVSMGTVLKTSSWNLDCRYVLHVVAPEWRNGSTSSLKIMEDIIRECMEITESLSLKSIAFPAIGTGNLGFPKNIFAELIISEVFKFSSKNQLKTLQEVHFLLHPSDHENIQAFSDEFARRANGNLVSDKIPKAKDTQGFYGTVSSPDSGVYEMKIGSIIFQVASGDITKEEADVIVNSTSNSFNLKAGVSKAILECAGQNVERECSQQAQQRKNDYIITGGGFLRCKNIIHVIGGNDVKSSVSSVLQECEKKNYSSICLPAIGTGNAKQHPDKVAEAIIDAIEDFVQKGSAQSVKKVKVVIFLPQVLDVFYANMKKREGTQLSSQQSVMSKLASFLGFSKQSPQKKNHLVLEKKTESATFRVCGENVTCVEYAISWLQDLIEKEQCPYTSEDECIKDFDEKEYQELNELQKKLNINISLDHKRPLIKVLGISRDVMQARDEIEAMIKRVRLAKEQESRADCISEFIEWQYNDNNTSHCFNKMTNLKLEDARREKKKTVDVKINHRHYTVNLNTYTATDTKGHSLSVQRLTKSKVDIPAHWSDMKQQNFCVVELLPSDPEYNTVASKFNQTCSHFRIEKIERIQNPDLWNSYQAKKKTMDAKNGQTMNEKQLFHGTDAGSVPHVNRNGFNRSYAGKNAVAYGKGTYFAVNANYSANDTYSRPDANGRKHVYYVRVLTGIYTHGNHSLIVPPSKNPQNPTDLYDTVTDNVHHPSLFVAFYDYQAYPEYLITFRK
Sequence of PARP15 (Q460N3 whole entry): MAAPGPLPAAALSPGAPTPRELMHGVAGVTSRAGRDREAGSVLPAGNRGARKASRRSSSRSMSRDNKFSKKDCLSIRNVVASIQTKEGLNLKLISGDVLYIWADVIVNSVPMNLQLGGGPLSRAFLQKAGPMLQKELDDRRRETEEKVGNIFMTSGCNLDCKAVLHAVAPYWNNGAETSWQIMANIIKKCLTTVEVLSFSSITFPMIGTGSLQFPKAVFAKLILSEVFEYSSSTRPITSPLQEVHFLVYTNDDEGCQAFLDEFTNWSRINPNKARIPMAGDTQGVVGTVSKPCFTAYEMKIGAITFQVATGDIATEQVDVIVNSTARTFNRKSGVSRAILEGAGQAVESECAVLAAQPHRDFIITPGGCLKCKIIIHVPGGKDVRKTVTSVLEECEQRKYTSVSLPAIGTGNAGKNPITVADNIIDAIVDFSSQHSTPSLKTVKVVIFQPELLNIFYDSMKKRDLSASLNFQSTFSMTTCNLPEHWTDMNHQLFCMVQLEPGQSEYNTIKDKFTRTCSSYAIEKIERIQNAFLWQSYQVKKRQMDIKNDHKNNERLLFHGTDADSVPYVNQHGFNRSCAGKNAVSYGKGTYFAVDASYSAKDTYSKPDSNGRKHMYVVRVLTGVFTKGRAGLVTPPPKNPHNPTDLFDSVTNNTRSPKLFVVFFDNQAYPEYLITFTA
Sequence of PARP3 (Q9Y6F1 whole entry): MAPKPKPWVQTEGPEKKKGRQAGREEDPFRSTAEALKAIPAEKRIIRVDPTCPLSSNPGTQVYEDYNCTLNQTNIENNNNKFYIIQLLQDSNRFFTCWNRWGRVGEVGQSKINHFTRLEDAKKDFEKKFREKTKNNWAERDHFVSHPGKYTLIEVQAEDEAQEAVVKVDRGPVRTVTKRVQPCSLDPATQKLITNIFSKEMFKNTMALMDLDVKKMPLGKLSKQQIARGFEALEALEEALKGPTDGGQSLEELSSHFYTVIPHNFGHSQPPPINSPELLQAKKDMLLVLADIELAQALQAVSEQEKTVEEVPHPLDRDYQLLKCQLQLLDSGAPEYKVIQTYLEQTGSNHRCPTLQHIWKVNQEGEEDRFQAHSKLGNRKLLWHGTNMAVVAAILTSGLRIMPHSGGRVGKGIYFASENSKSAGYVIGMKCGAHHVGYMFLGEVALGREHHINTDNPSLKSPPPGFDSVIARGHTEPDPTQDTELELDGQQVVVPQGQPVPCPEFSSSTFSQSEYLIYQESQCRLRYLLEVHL

NC(N)=NCCC[C@H](NCN1CCN(C(=O)c2cc(Cc3n[nH]c(=O)c4ccccc34)ccc2F)CC1)C(=O)O [PPNR-4]
0.21 µM: IC50 (MDA-MB-231 cells; 168 h, concentration needed to reduce cell growth by 50% following 7 days cell treatment, read-out: IC50)
> 80%: inhibition at 2 µM (MDA-MB-231 cells; 2 μM, read-out: cell inhibition rate)
> 10 µM: IC50 (AKT2) | IC50 (NEK9) | IC50 (FGFR4) | IC50 (CK1α) | IC50 (Erk5) | IC50 (CSK) | IC50 (EPHB4) | IC50 (BRAF) | Kd (PARP8) | Kd (PARP9) | Kd (PARP12) | Kd (PARP10) | Kd (PARP3) | Kd (PARP13) | Kd (NRP2) | Kd (PARP2) | Kd (PARP14) | Kd (CHEK2) | Kd (PARP7) | Kd (PARP15) | Kd (ATR) | Kd (RAD51) | IC50 (EGFR)
0.00771 ± 0.00039 µM: IC50 (PARP1)
0.0245 ± 0.00216 µM: IC50 (NRP1)
